Usually IC50 stands for the concentration at which inhibition is half-maximal. A low value points to higher potency.

The test system of one assay is A431. In words: Cell proliferation study (CellTiter-Glo), A431 WT. The format is cell-based. Conditions: Homo sapiens, A-431; A431 cells, 72 hrs, CTG. As for the experimental part: (§1) • DMEM medium (Gibco, 11965118) • RPMI1640 medium (Gibco, 11875119) • Fetal bovine serum (FBS) (GBICO, Cat #10099-141) • CellTiter-Glo® luminescent cell viability assay kit (Promega, Cat #G7572) • Black transparent flat-bottom 96-well plate (Corning®, Cat #3603)
(§2) • SpectraMax multi-label microplate reader MD, 2104-0010A; • Carbon dioxide incubator, Thermo Scientific 3100 series; • Biological safety cabinet, Thermo Scientific, 1300 series model A2; • Inverted microscope, Olympus, CKX41SF; • Siemens refrigerator, KK25E76TI.
(§3) • (1) Cells in the logarithmic growth phase were harvested and counted using a […]. The cell viability was determined by the trypan blue dye exclusion method to ensure cell viability above 90%. • (2) The cell concentration was adjusted to reach a desired final density; 90 μL of cell suspension was added to a 96-well plate. • (3) The cells were incubated overnight in the 96-well plate at 37° C., 5% CO2 and with 95% humidity.
(§4) • (1) 10 μL of PBS was added to each well of the TO plate containing the cells, • (2) The CTG reagent was thawed and the cell plate was equilibrated to room temperature for 30 min. • (3) An equal volume of CTG solution was added to each well. • (4) The cells were lysed by shaking on an orbital shaker for 5 min. • (5) The cell plate was left to stand at room temperature for 20 min to stabilize the fluorescence signal. • (6) The fluorescence signal values of TO were read.
(§5) • (1) According to the compound information table, a corresponding volume of DMSO was added to the corresponding compound powder to prepare a 10 mM stock solution. • (2) A 1000-fold, 3.16-fold-diluted compound solution was prepared. • (3) The 1000× diluted compound solution was diluted 100-fold with PBS to prepare a 10-fold compound solution with a maximum concentration of 10 μM, including 9 concentrations, with 3.16-fold dilution, and 10 μL of the medicament solution was added to each well of the 96-well plate to seed the cells. Triplicate wells were set for each compound concentration, with a final concentration of DMSO being 0.1%. • (4) The cells were placed in the 96-well plate containing the medicament at 37° C., 5% CO2 and with 95% humidity, and cultured for 72 hrs before CTG analysis,
(§6) • (1) The CTG reagent was thawed and the cell plate was equilibrated to room temperature for 30 min. • (2) An equal volume of CTG solution was added to each well. • (3) The cells were lysed by shaking on an orbital shaker for 5 min. • (4) The cell plate was left to stand at room temperature for 20 min to stabilize the fluorescence signal. • (5) The fluorescence values were read.
(§7) Data were analyzed using GraphPad Prism 7.0 software and fitted data were regressed using non-linear S-curves to obtain dose-response curves from which IC50 values (in nM) were calculated.
A general note: ATP-based viability assays read luminescence as a measure of living cells.

Another assay concerns the target Ba/F3 EGFR-L858R-C797S (Homo sapiens, UniProt P00533, C797S/L858R, cells depend on it). The experiment in a line: Cell proliferation study (CellTiter-Glo), Ba/F3 EGFR-L858R-C797S. The format is cell-based. The note with it: 72 hrs, CTG, read-out: L858R/C797S IC50. How it is done:
as §1, §2, §3, §4, §5, §6, §7

For another assay, the target named is Ba/F3 EGFR-Del19-C797S (Homo sapiens, UniProt P00533, C797S, cells depend on it, form not given). In words: Cell proliferation study (CellTiter-Glo), Ba/F3 EGFR-Del19-C797S. The note with it: 72 hrs, CTG, read-out: Del19/C797S IC50. The format is cell-based. How it is done: as §1, §2, §3, §4, §5, §6, §7
A further assay addresses Ba/F3 EGFR-L858R (Homo sapiens, UniProt P00533, L858R, cells depend on it). The experiment in a line: Cell proliferation study (CellTiter-Glo), Ba/F3 EGFR-L858R. The format is cell-based. The note with it: 72 hrs, CTG, read-out: L858R IC50. How it is done:
as §1, §2, §3, §4
(§8) • (1) According to the compound information table, a corresponding volume of DMSO was added to the corresponding compound powder to prepare a 10 mM stock solution. • (2) A 1000-fold, 3.16-fold-diluted compound solution was prepared. • (3) The 1000× diluted compound solution was diluted 100-fold with PBS to prepare a 10-fold compound solution with a maximum concentration of 10 μM, including 9 concentrations, with 3.16-fold dilution, and 10 μL of the medicament solution was added to each well of the 96-well plate to seed the cells. […]
as §6, §7

For another assay, the target named is Ba/F3 EGFR-Del19 (Homo sapiens, UniProt P00533, cells depend on it, form not given). The experiment in a line: Cell proliferation study (CellTiter-Glo), Ba/F3 EGFR-Del19. In kind it is cell-based. Conditions: 72 hrs, CTG, read-out: Del19 IC50. How it is done:
as §1, §2, §3, §4, §8, §6, §7

The subject of assay [1] is EGFR-Mutated Advanced Non-Small-Cell Lung Cancer. The note with it: patients, untreated EGFR-mutated advanced NSCLC; cited from earlier work.

Chain of Ba/F3 EGFR-L858R-C797S (P00533 whole entry C797S/L858R): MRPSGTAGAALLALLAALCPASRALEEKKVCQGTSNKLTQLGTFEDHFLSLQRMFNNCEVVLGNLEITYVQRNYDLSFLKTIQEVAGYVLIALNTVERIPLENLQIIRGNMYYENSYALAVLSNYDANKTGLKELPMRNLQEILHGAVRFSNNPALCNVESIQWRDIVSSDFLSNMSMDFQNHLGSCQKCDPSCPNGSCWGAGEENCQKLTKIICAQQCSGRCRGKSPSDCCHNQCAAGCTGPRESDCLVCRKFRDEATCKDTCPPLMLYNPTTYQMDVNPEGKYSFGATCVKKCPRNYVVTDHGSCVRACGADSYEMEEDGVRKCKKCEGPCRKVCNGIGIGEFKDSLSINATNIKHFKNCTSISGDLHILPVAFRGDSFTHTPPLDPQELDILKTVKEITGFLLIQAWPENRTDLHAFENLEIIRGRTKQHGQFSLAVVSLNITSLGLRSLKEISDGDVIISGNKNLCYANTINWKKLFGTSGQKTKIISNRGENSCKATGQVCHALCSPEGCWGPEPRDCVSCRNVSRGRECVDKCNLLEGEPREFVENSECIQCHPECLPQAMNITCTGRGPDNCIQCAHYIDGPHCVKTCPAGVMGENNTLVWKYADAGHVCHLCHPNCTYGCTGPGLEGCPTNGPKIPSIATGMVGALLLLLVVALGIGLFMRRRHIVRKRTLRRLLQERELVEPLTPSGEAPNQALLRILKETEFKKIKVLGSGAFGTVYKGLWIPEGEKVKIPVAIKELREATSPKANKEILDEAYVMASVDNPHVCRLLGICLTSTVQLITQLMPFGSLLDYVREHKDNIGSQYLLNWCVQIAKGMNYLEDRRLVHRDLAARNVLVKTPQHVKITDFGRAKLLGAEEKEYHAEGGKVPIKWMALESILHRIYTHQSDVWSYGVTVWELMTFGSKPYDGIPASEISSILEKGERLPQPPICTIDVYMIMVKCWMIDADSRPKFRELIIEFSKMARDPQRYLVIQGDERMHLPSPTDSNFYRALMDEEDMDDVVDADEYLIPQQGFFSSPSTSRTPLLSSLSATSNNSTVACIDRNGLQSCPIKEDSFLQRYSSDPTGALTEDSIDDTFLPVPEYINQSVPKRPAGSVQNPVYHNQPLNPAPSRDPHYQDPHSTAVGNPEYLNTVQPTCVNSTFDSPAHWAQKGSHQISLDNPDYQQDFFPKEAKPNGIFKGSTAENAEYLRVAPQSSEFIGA
Chain of Ba/F3 EGFR-Del19-C797S (P00533 with tags, fused parts or gaps DEL746-750/C797S, form open): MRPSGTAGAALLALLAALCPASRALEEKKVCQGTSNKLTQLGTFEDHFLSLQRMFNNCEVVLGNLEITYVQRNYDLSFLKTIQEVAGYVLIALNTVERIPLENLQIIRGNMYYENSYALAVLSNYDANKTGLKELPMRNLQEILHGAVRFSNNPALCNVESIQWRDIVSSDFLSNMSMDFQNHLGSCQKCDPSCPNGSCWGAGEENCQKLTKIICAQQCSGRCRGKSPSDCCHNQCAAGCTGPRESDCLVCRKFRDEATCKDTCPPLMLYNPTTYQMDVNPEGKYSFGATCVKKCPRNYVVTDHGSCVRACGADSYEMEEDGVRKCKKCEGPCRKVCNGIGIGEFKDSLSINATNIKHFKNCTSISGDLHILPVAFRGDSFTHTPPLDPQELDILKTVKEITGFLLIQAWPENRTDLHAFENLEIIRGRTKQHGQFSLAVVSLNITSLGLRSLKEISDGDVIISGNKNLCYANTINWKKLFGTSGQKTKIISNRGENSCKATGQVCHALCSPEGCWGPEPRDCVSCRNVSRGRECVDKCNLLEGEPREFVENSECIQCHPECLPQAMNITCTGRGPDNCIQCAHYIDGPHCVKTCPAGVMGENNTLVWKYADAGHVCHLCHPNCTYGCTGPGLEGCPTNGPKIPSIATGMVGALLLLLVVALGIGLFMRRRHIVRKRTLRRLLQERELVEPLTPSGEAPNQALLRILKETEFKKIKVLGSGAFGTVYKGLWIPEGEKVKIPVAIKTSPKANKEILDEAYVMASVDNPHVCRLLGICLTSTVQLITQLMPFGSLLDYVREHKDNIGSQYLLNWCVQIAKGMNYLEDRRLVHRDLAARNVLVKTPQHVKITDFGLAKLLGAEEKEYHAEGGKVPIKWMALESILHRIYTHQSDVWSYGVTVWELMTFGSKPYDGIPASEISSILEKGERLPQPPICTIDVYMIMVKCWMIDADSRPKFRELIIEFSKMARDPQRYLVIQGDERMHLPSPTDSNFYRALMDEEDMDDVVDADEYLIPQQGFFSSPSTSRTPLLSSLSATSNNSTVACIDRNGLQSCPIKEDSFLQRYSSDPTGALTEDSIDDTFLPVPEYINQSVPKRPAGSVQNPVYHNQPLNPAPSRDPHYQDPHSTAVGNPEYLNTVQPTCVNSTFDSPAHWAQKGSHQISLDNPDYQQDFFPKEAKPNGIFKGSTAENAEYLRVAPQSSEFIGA
Chain of Ba/F3 EGFR-L858R (P00533 whole entry L858R): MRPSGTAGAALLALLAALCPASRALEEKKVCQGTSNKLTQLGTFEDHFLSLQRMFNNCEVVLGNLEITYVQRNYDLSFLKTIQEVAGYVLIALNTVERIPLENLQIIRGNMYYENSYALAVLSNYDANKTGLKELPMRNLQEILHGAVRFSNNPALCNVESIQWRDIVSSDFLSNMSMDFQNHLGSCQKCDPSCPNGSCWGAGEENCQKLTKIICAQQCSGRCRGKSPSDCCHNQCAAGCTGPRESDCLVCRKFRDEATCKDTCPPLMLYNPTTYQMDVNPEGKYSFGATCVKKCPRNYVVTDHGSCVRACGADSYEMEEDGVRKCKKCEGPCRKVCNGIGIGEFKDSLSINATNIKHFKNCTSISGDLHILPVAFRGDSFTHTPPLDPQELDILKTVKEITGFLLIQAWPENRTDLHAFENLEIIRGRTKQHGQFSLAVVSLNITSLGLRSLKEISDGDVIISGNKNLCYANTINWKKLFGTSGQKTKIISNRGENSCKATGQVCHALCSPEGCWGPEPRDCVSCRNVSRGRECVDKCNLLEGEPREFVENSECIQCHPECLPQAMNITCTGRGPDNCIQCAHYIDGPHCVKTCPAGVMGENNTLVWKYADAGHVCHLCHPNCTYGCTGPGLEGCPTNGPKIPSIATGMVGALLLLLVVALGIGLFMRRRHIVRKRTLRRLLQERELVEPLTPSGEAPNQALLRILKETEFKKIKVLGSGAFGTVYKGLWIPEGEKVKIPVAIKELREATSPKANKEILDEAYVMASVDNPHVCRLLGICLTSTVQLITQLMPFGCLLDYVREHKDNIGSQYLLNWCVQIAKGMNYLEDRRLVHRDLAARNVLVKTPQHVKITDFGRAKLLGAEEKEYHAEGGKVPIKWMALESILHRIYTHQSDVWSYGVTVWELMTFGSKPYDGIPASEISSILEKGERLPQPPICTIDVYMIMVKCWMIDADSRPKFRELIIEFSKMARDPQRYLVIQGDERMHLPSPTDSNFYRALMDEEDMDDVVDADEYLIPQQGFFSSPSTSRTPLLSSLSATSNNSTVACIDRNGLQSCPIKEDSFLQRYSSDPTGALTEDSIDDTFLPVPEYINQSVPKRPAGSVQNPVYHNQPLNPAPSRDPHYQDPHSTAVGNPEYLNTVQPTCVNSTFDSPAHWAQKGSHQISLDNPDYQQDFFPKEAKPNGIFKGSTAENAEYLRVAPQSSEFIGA
Chain of Ba/F3 EGFR-Del19 (P00533 with tags, fused parts or gaps DEL746-750): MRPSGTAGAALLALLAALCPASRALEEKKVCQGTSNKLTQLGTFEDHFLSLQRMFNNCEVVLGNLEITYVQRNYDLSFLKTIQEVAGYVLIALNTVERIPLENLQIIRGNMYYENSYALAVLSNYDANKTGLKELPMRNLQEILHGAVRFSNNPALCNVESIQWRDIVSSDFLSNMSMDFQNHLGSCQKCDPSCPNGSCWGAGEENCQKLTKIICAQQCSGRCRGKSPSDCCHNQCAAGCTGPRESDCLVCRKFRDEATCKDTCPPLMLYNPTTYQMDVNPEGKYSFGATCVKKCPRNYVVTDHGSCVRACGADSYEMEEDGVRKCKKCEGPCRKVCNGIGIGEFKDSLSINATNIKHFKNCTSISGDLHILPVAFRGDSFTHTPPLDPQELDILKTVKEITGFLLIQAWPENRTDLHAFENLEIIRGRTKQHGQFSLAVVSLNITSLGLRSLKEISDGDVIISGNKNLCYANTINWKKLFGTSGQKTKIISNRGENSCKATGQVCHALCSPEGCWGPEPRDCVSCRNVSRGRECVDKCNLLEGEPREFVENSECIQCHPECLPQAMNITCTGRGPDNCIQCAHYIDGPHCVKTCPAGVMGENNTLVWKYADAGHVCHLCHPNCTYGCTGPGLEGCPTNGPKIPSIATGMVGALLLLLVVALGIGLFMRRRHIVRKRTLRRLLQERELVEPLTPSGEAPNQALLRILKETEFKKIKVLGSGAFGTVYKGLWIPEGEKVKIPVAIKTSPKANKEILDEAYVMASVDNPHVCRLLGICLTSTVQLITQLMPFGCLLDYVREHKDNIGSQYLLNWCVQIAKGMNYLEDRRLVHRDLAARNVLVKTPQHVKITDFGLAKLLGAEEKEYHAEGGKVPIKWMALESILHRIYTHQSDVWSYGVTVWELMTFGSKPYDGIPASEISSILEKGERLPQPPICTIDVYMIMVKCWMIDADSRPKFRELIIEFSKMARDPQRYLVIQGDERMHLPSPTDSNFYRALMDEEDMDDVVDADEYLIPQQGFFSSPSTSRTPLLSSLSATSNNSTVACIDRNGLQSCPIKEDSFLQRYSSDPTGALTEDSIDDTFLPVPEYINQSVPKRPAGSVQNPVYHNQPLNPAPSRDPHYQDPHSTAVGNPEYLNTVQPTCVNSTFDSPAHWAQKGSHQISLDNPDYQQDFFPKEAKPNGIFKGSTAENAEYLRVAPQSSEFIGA

The molecule `CCN1CCN(C2CCN(c3cc(OC)c(Nc4cc(Nc5ccnc(-c6ccccc6F)c5)ncn4)cc3C)CC2)CC1` [Example 16, N^4-(4-(4-(4-ethylpiperazin-1-yl)piperidin-1-yl)-2-methoxy-5-methylphenyl)-N^6-(2-(2-fluorophenyl)pyridin-4-yl)pyramidine-4,6-diamine] gave an IC50 in the assay on A431 of 177 nM. Moreover, the GI50 on Ba/F3 EGFR-L858R-C797S is 11.3 nM; at Ba/F3 EGFR-Del19-C797S, 12.9 nM; at Ba/F3 EGFR-L858R, 3.9 nM; on Ba/F3 EGFR-Del19, 3.1 nM.

As to `C=CC(=O)Nc1cc(Nc2nccc(-c3cn(C)c4ccccc34)n2)c(OC)cc1N(C)CCN(C)C` [osimertinib], in assay [1], the overall survival is recorded as 38.6 months and the progression-free survival is 18.9 months.

Values taken from patent US20240360102A1, “PYRIMIDINE-4,6-DIAMINE DERIVATIVE, A PREPARATION METHOD THEREFOR, AND A PHARMACEUTICAL APPLICATION THEREOF” (Abbisko Therapeutics Co., Ltd., priority 2021, published 2024).
